In US8932597B2 (priority 2008, dated 2015):

Experiments:
[1] = tested on: HuM2e antibody 23K12; type: binding, human
[2] = tested on: anti-M2 human monoclonal antibody Z3G1; type: binding

Row | Substance | Signal (peptides that bind to 23K21 and 8I10) [1] | Signal (peptides that bind to Z3G1) [2] | Signal (peptides that show specific binding to Z3G1) [2]
1 | 356 (SLLTEVETPIRNEWGCRCNDSDD; epitope peptide) [compound 356] | 1553 | 2181 | 
2 | 537 (SLLTEVEPPIRNEWGCRCNDSSD; epitope peptide) [compound 537] | 953 |  | 2522
3 | 416 (SLLTEVETPIRNEWGCRCNDTSD; epitope peptide) [compound 416] | 794 | 2394 | 
4 | 546 (SLLTEVETPIRNRWGCRCNDSSD; epitope peptide) [compound 546] | 921 |  | 2257
5 | 324 (SLCTEVGSLLTEV; epitope peptide) [compound 324] | 1772 |  | 1780
6 | 711 (CSLLTEVGSLCTEV; epitope peptide) [compound 711] | 707 |  | 2409
7 | 422 (SLLTEVETPIRNEWGCRCNDSFD; epitope peptide) [compound 422] | 947 | 2492 | 
8 | 450 (SLLTEVEHPIRNEWGCRCNDSSD; epitope peptide) [compound 450] | 1331 |  | 2241
9 | 230 (CTPIRNEWGSRSNDSSCSLLTEVETC; epitope peptide) [compound 230] | 861 |  | 2168
10 | 676 (SLLTEVETPIENEWGCRCNDSSD; epitope peptide) [compound 676] | 731 |  | 2252
11 | 503 (SLLTEVETPIRNEWGCWCNDSSD; epitope peptide) [compound 503] | 1061 |  | 2437
12 | 379 (SLCTEVGCSCLCEV; epitope peptide) [compound 379] | 1421 |  | 1500
13 | 700 (SLLTEVETSIRNEWGCRCNDSSD; epitope peptide) [compound 700] | 715 |  | 2151
14 | 587 (SLLTEVETPIRCEWGCRCNDSSD; epitope peptide) [compound 587] | 850 |  | 1956
15 | 288 (CSCLCEVGMSLLTEV; epitope peptide) [compound 288] | 2154 | 1812 | 
16 | 389 (SLLTEVETPYRNEWGCRCNDSSD; epitope peptide) [compound 389] | 1350 |  | 2303
17 | 653 (SLLTEVETIIRNEWGCRCNDSSD; epitope peptide) [compound 653] | 756 |  | 2096
18 | 365 (CSLLTEVCMSLLTEC; epitope peptide) [compound 365] | 1498 | 1891 | 
19 | 509 (SLLTEVETPIYNEWGCRCNDSSD; epitope peptide) [compound 509] | 1049 |  | 2296
20 | 608 (SLLTEIETPIRNEWGCRCNDSSD; epitope peptide) [compound 608] | 816 |  | 2016
21 | 688 (SLLTEVETPIRNETGCRCNDSSD; epitope peptide) [compound 688] | 724 |  | 2401

Row | Substance | Signal (peptides that bind to 23K21 and 8I10) [1] | Signal (peptides that bind to Z3G1) [2] | Signal (peptides that show specific binding to Z3G1) [2]
22 | 640 (SLLTEVETPIRNKWGCRCNDSSD; epitope peptide) [compound 640] | 765 |  | 2402
23 | 651 (SLLTEVETPIRNEWGCRCHDSSD; epitope peptide) [compound 651] | 758 | 2350 | 
24 | 691 (SLLTEVETPIRNEWGCRMNDSSD; epitope peptide) [compound 691] | 722 |  | 2356
25 | 372 (CSLLTEVGMSCLTEV; epitope peptide) [compound 372] | 1466 | 2554 | 
26 | 645 (SLLTEVVTPIRNEWGCRCNDSSD; epitope peptide) [compound 645] | 763 |  | 1492
27 | 646 (SLLTEVEGPIRNEWGCRCNDSSD; epitope peptide) [compound 646] | 763 |  | 2341
28 | 680 (SLLTEVETPIVNEWGCRCNDSSD; epitope peptide) [compound 680] | 729 |  | 2366
29 | 352 (SLQTEVETPIRNEWGCRCNDSSD; epitope peptide) [compound 352] | 1561 |  | 2025
30 | 709 (SLLTEVLTPIRNEWGCRCNDSSD; epitope peptide) [compound 709] | 707 |  | 1743
31 | 447 (SLLTEVETPIRNEWGCRCNDS; epitope peptide) [compound 447] | 817 | 2348 | 
32 | 460 (MSLLTECGMSLLCEV; epitope peptide) [compound 460] | 1268 | 2373 | 
33 | 506 (SLCTEVGSLLCEV; epitope peptide) [compound 506] | 1050 |  | 1863
34 | 542 (MSLCTEVGMSLLTCV; epitope peptide) [compound 542] | 927 | 2722 | 
35 | 581 (SLLTEVETYIRNEWGCRCNDSSD; epitope peptide) [compound 581] | 857 |  | 2290
36 | 654 (SLLTEVETPIRYEWGCRCNDSSD; epitope peptide) [compound 654] | 755 |  | 2202
37 | 451 (CSLLTEVGMSLLTEC; epitope peptide) [compound 451] | 1326 | 2613 | 
38 | 359 (MSLLTEVGMSCLTEV; epitope peptide) [compound 359] | 1535 | 2793 | 
39 | 547 (SLLTETETPIRNEWGCRCNDSSD; epitope peptide) [compound 547] | 919 |  | 1594
40 | 499 (CSLLTEVGMSCLCEC; epitope peptide) [compound 499] | 1066 | 2101 | 
41 | 560 (SLLTEVETPIRNEWGCRCFDSSD; epitope peptide) [compound 560] | 894 | 2538 | 
